Results: the CheMixHub viscosity set
Where “and” joins values, the source holds several entries; their conditions need not be identical. Equal values may be shown once.

Assay: xn = mol fraction of the nth substance listed

COCCOCCOC + CCCCCCCCCCCCCC
viscosity [mPa·s], 101.33 kPa
Conditions	x1 = 0.0987	x1 = 0.2023	x1 = 0.302	x1 = 0.4002	x1 = 0.5033	x1 = 0.594	x1 = 0.6981	x1 = 0.7958	x1 = 0.8986
298.15 K	1.835	1.672	1.55	1.448	1.345	1.275	1.187	1.113	1.044
308.15 K	1.503	1.38	1.29	1.205	1.122	1.068	0.996	0.938	0.888
318.15 K	1.248	1.153	1.07	1.009	0.945	0.902	0.848	0.8	0.76

COC(=O)OC + CCCCCCCC
298.15 K, 101.3 kPa
Conditions	viscosity [mPa·s]
x1 = 0.0701	0.503
x1 = 0.1113	0.495
x1 = 0.2006	0.483
x1 = 0.2669	0.476
x1 = 0.2955	0.476
x1 = 0.4863	0.481
x1 = 0.6318	0.494
x1 = 0.6706	0.499
x1 = 0.7712	0.517
x1 = 0.8602	0.543
x1 = 0.9459	0.569

Oc1ccccc1 + O=[N+]([O-])c1ccccc1
293.15 K, 101 kPa
Conditions	viscosity [mPa·s]
x1 = 0.0537	1.975
x1 = 0.113	2.041
x1 = 0.2245	2.208
x1 = 0.3306	2.46
x1 = 0.4448	2.845
x1 = 0.5641	3.53
x1 = 0.6497	4.19
x1 = 0.7623	5.4
x1 = 0.8785	7.59

O=S(=O)([O-])[O-].[Li+].[Li+] + O
Conditions	viscosity
293.15 K, 101 kPa, x1 = 0.007256	1.26 mPa·s
293.15 K, 101 kPa, x1 = 0.01412	1.55 mPa·s
293.15 K, 101 kPa, x1 = 0.02103	1.89 mPa·s
293.15 K, 101 kPa, x1 = 0.02766	2.31 mPa·s
293.15 K, 101 kPa, x1 = 0.03404	2.82 mPa·s
293.15 K, 101 kPa, x1 = 0.04479	4.02 mPa·s
293.15 K, 101 kPa, x1 = 0.05103	5.05 mPa·s
293.15 K, 101 kPa, x1 = 0.05234	5.28 mPa·s
293.15 K, 101 kPa, x1 = 0.05329	5.47 mPa·s
293.15 K, 101 kPa, x1 = 0.05449	5.71 mPa·s
298.15 K, 101 kPa, x1 = 0.007256	1.12 mPa·s
298.15 K, 101 kPa, x1 = 0.00868	1.152 mPa·s and 1.152 mPa·s
298.15 K, 101 kPa, x1 = 0.01412	1.38 mPa·s
298.15 K, 101 kPa, x1 = 0.02103	1.69 mPa·s
298.15 K, 101 kPa, x1 = 0.02192	1.705 mPa·s and 1.705 mPa·s
298.15 K, 101 kPa, x1 = 0.02766	2.05 mPa·s
298.15 K, 101 kPa, x1 = 0.03404	2.49 mPa·s
298.15 K, 101 kPa, x1 = 0.03935	2.947 mPa·s and 2.947 mPa·s
298.15 K, 101 kPa, x1 = 0.04479	3.49 mPa·s
298.15 K, 101 kPa, x1 = 0.05103	4.36 mPa·s
298.15 K, 101 kPa, x1 = 0.05234	4.57 mPa·s
298.15 K, 101 kPa, x1 = 0.05329	4.71 mPa·s
298.15 K, 101 kPa, x1 = 0.05449	4.95 mPa·s
298.15 K, 101.33 kPa, x1 = 0.05143	2.05 mPa·s
298.15 K, 101.33 kPa, x1 = 0.05627	3.659 mPa·s
300.15 K, 101 kPa, x1 = 0.05329	4.47 mPa·s
300.15 K, 101 kPa, x1 = 0.05449	4.7 mPa·s
303.15 K, 101 kPa, x1 = 0.007256	0.99 mPa·s
303.15 K, 101 kPa, x1 = 0.01412	1.22 mPa·s
303.15 K, 101 kPa, x1 = 0.02103	1.51 mPa·s
303.15 K, 101 kPa, x1 = 0.02766	1.82 mPa·s
303.15 K, 101 kPa, x1 = 0.03404	2.21 mPa·s
303.15 K, 101 kPa, x1 = 0.04479	3.06 mPa·s
303.15 K, 101 kPa, x1 = 0.05103	3.81 mPa·s
303.15 K, 101 kPa, x1 = 0.05234	3.99 mPa·s
303.15 K, 101 kPa, x1 = 0.05329	4.11 mPa·s
303.15 K, 101 kPa, x1 = 0.05449	4.3 mPa·s
305.15 K, 101 kPa, x1 = 0.05329	3.89 mPa·s
305.15 K, 101 kPa, x1 = 0.05449	4.1 mPa·s
308.15 K, 101 kPa, x1 = 0.05103	3.33 mPa·s
308.15 K, 101 kPa, x1 = 0.05234	3.49 mPa·s
308.15 K, 101 kPa, x1 = 0.05329	3.57 mPa·s
310.15 K, 101 kPa, x1 = 0.05329	3.39 mPa·s
311.15 K, 101 kPa, x1 = 0.05234	3.25 mPa·s
312.15 K, 101 kPa, x1 = 0.05329	3.24 mPa·s
313.15 K, 101 kPa, x1 = 0.007256	0.8 mPa·s
313.15 K, 101 kPa, x1 = 0.01412	0.99 mPa·s
313.15 K, 101 kPa, x1 = 0.02103	1.21 mPa·s
313.15 K, 101 kPa, x1 = 0.02766	1.49 mPa·s
313.15 K, 101 kPa, x1 = 0.03404	1.76 mPa·s
313.15 K, 101 kPa, x1 = 0.04479	2.42 mPa·s
313.15 K, 101 kPa, x1 = 0.05103	2.96 mPa·s
313.15 K, 101 kPa, x1 = 0.05234	3.1 mPa·s
313.15 K, 101 kPa, x1 = 0.05329	3.17 mPa·s
314.15 K, 101 kPa, x1 = 0.05329	3.11 mPa·s
316.15 K, 101 kPa, x1 = 0.05234	2.89 mPa·s
318.15 K, 101 kPa, x1 = 0.05103	2.65 mPa·s
318.15 K, 101 kPa, x1 = 0.05234	2.77 mPa·s
320.15 K, 101 kPa, x1 = 0.05234	2.66 mPa·s
323.15 K, 101 kPa, x1 = 0.00868	0.7 mPa·s
323.15 K, 101 kPa, x1 = 0.02192	1.014 mPa·s
323.15 K, 101 kPa, x1 = 0.03935	1.669 mPa·s
323.15 K, 101 kPa, x1 = 0.05103	2.37 mPa·s
323.15 K, 101 kPa, x1 = 0.05234	2.52 mPa·s
323.15 K, 101.33 kPa, x1 = 0.05088	1.378 mPa·s
